Experiments:
Test in all cases: radiometric filter-binding kinase assay, Kinase HotSpot
Settings in all cases: compound 0.5 µM; ATP 10 µM
[1] = biological target: CLK1 (human) (UniProt P49759)
[2] = biological target: CHEK1 (human) (UniProt O14757)
[3] = biological target: PLK1 (human) (UniProt P53350)
[4] = biological target: CAMKK2 (human) (UniProt Q96RR4)
[5] = biological target: RET (human) (UniProt P07949)
[6] = biological target: KIT (human) (UniProt P10721)
[7] = biological target: AXL (human) (UniProt P30530)
[8] = biological target: MAP3K14 (human) (UniProt Q99558)
[9] = biological target: ABL1 (human) (UniProt P00519)
ABL1 (human), sequence (P00519 whole entry, looked up): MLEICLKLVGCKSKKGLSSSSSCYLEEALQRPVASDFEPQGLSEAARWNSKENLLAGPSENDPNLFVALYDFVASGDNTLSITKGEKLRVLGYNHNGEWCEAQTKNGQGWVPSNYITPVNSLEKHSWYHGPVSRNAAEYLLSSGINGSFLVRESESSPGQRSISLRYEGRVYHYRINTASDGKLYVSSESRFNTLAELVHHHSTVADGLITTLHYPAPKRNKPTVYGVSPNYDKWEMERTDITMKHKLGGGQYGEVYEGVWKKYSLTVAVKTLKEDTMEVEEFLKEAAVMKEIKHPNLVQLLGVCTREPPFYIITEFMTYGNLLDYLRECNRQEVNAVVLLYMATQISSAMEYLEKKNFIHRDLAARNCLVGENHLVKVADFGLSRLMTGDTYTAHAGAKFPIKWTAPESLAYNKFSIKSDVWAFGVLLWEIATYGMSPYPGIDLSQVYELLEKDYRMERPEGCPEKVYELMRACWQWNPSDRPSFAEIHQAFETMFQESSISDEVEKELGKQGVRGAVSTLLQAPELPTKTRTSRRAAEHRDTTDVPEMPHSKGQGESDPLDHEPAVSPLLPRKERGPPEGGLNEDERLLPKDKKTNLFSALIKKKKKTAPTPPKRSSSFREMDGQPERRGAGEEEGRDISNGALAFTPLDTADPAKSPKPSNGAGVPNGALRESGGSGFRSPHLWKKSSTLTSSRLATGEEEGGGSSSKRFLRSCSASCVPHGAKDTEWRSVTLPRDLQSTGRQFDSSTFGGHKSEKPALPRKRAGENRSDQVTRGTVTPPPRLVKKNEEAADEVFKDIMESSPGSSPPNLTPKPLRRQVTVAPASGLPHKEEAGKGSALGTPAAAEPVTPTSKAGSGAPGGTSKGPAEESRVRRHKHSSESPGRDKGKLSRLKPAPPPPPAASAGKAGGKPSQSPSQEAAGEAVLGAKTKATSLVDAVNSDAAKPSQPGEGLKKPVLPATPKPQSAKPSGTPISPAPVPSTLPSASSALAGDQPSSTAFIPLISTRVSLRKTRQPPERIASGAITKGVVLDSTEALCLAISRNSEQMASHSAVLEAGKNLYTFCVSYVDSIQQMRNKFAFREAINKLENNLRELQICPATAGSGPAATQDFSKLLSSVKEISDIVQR

[10] = biological target: DAPK2 (human) (UniProt Q9UIK4)
DAPK2 (human), sequence (Q9UIK4 whole entry, looked up): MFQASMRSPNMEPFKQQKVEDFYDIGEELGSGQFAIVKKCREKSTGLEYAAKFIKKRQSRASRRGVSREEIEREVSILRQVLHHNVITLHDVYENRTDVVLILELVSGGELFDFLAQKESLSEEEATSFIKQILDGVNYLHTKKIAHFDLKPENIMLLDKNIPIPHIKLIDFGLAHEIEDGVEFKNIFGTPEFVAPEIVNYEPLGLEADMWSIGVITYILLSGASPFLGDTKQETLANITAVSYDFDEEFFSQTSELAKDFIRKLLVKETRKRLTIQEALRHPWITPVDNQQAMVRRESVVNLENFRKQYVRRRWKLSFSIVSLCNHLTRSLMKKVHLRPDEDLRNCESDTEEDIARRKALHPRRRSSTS

[11] = biological target: ROCK1 (human) (UniProt Q13464)
[12] = biological target: NEK2 (human) (UniProt P51955)
[13] = biological target: FRK (human) (UniProt P42685)
[14] = biological target: PASK (human) (UniProt Q96RG2)
[15] = biological target: CAMK2D (human) (UniProt Q13557)
[16] = biological target: AURKA (human) (UniProt O14965)
[17] = biological target: LCK (human) (UniProt P06239)
[18] = biological target: CAMK2B (human) (UniProt Q13554)
[19] = biological target: LIMK1 (human) (UniProt P53667)
LIMK1 (human), sequence (P53667 whole entry, looked up): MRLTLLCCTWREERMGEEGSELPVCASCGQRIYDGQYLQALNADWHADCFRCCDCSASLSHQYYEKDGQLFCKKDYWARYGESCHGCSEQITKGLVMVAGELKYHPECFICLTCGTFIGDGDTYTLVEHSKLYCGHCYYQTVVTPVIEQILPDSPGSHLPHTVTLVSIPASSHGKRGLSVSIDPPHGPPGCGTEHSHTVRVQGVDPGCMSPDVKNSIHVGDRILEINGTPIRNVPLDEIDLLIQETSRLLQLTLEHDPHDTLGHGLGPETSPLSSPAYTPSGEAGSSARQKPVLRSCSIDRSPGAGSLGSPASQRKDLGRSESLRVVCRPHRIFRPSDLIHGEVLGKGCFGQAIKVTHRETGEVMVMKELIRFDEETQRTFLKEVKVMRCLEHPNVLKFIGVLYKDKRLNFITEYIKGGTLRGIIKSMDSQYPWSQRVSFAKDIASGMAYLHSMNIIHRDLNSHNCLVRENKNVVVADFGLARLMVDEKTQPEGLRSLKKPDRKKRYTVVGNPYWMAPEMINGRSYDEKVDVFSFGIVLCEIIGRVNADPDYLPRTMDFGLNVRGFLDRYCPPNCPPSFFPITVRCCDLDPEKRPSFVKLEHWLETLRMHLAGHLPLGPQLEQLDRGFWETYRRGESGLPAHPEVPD

[20] = biological target: CDK2 CCNE1 (human) (UniProt P24941+P24864)
[21] = biological target: CSNK2A1 (human) (UniProt P68400)
[22] = biological target: MAP4K2 (human) (UniProt Q12851)
MAP4K2 (human), sequence (Q12851 whole entry, looked up): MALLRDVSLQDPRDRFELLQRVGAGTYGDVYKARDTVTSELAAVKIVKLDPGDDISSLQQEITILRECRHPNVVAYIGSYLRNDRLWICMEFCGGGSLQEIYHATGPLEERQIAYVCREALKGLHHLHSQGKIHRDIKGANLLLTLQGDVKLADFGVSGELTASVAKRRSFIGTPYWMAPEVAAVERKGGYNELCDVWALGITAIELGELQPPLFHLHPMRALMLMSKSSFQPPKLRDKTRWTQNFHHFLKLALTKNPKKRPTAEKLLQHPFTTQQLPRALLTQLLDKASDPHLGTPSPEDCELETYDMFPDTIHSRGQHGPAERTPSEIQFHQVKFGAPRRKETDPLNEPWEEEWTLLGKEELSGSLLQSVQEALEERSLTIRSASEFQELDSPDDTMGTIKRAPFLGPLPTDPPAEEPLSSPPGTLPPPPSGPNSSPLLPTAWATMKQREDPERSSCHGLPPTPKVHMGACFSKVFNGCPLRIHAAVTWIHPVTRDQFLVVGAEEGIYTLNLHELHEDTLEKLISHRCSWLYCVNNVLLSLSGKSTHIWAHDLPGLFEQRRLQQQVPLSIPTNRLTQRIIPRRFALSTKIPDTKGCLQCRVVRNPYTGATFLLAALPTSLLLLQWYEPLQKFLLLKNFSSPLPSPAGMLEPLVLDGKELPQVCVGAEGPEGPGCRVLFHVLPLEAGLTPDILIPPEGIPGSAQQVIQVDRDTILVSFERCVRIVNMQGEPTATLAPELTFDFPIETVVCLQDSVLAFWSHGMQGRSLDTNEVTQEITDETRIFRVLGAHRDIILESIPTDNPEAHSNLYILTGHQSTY

[23] = biological target: EGFR (human) (UniProt P00533)
[24] = biological target: TXK (human) (UniProt P42681)
[25] = biological target: OXSR1 (human) (UniProt O95747)
OXSR1 (human), sequence (O95747 whole entry, looked up): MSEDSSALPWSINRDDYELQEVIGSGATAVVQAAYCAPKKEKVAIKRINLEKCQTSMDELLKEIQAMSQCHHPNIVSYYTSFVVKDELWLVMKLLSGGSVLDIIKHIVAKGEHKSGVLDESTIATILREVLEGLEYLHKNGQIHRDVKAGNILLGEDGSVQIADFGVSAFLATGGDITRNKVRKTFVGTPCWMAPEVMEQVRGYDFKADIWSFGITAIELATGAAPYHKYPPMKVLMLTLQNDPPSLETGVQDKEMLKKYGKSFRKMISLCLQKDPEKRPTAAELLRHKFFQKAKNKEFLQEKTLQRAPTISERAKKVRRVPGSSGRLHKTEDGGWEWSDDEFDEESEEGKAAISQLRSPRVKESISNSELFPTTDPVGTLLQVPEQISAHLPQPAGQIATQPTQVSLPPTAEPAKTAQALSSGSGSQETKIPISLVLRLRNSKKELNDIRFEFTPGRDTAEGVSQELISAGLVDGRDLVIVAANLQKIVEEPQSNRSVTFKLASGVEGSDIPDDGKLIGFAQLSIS

[26] = biological target: SRPK1 (human) (UniProt Q96SB4)
[27] = biological target: JAK1 JH1 catalytic (human) (UniProt P23458)
[28] = biological target: EPHB4 (human) (UniProt P54760)
[29] = biological target: ACVR1B (human) (UniProt P36896)
[30] = biological target: DYRK1A (human) (UniProt Q13627)
[31] = biological target: TTK (human) (UniProt P33981)
[32] = biological target: AURKC (human) (UniProt Q9UQB9)
AURKC (human), sequence (Q9UQB9 whole entry, looked up): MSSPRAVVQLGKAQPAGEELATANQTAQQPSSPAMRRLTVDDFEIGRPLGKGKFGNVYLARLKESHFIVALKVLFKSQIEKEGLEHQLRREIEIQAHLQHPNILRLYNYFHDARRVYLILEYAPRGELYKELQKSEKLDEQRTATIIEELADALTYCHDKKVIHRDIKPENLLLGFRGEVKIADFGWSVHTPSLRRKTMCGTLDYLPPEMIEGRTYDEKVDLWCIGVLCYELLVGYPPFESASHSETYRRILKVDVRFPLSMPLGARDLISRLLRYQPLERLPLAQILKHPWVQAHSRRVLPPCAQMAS

[33] = biological target: EPHA4 (human) (UniProt P54764)
[34] = biological target: MKNK2 (human) (UniProt Q9HBH9)
[35] = biological target: MAPKAPK2 (human) (UniProt P49137)
[36] = biological target: EPHA5 (human) (UniProt P54756)
EPHA5 (human), sequence (P54756 whole entry, looked up): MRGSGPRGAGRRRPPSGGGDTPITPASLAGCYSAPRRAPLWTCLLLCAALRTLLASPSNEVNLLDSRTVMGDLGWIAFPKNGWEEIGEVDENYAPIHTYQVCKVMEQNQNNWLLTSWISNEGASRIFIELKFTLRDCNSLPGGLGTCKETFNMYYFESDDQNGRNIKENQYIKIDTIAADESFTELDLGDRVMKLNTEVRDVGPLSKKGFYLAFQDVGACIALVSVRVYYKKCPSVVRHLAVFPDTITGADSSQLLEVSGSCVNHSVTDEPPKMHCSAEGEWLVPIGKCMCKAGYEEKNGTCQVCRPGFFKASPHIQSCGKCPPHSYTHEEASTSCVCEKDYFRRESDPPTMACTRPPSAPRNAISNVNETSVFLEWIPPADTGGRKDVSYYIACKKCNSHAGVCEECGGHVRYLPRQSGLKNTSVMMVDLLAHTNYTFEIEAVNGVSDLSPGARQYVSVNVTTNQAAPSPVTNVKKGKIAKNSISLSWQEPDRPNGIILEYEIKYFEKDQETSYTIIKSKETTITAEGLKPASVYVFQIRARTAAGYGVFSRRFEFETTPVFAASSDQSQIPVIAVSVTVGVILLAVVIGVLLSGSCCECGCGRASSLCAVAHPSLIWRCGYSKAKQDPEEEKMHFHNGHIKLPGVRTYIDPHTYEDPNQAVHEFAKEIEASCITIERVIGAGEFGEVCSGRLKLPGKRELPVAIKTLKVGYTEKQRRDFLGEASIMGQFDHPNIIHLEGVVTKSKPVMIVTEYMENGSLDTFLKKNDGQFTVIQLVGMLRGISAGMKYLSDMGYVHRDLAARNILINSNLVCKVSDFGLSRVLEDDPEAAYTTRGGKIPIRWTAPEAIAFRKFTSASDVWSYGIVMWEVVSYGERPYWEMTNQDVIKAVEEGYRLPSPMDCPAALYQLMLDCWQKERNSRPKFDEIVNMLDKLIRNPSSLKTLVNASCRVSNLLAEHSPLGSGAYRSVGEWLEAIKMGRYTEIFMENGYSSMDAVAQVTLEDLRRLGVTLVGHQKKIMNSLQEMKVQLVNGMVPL

[37] = biological target: JAK2 JH1 JH2 (human) (UniProt O60674)
[38] = biological target: ERBB2 (human) (UniProt P04626)
[39] = biological target: PAK2 (human) (UniProt Q13177)
[40] = biological target: PDGFRB (human) (UniProt P09619)
[41] = biological target: FGFR2 (human) (UniProt P21802)
[42] = biological target: MAPK14 (human) (UniProt Q16539)

## O=C1Nc2ccc(Br)cc2/C1=C\c1cc2c([nH]1)CCCC2
[1]
  residual activity: 97.2%
[2]
  residual activity: 81.8%
[3]
  residual activity: 102%
[4]
  residual activity: 68.1%
[5]
  residual activity: 42.9%
[6]
  residual activity: 30.5%
[7]
  residual activity: 90%
[8]
  residual activity: 112%
[9]
  residual activity: 91.8%
[10]
  residual activity: 102%
[11]
  residual activity: 98.8%
[12]
  residual activity: 87.9%
[13]
  residual activity: 91%
[14]
  residual activity: 98.9%
[15]
  residual activity: 84.2%
[16]
  residual activity: 87.5%
[17]
  residual activity: 84.5%
[18]
  residual activity: 85.8%
[19]
  residual activity: 83%
[20]
  residual activity: 96%
[21]
  residual activity: 96.1%
[22]
  residual activity: 58.1%
[23]
  residual activity: 87.4%
[24]
  residual activity: 97.3%
[25]
  residual activity: 96.7%
[26]
  residual activity: 98.3%
[27]
  residual activity: 99.3%
[28]
  residual activity: 88.6%
[29]
  residual activity: 99%
[30]
  residual activity: 87.1%
[31]
  residual activity: 95.1%
[32]
  residual activity: 86.3%
[33]
  residual activity: 94.8%
[34]
  residual activity: 87.1%
[35]
  residual activity: 97.5%
[36]
  residual activity: 91.3%
[37]
  residual activity: 95.2%
[38]
  residual activity: 115%
[39]
  residual activity: 90%
[40]
  residual activity: 58.8%
[41]
  residual activity: 87.4%

## Cc1cccc(-c2nc(C(C)(C)C)[nH]c2-c2ccc3c(c2)OCO3)n1
[1]
  residual activity: 98%
[2]
  residual activity: 89.8%
[3]
  residual activity: 105%
[4]
  residual activity: 96%
[5]
  residual activity: 103%
[6]
  residual activity: 93.6%
[7]
  residual activity: 101%
[8]
  residual activity: 109%
[9]
  residual activity: 100%
[10]
  residual activity: 102%
[11]
  residual activity: 101%
[12]
  residual activity: 107%
[13]
  residual activity: 98.8%
[14]
  residual activity: 78.9%
[15]
  residual activity: 100%
[16]
  residual activity: 93.4%
[17]
  residual activity: 97.9%
[18]
  residual activity: 96.2%
[19]
  residual activity: 86.2%
[20]
  residual activity: 95.6%
[21]
  residual activity: 98%
[22]
  residual activity: 102%
[23]
  residual activity: 96.4%
[24]
  residual activity: 100%
[25]
  residual activity: 103%
[26]
  residual activity: 96.5%
[27]
  residual activity: 96.1%
[28]
  residual activity: 91.4%
[29]
  residual activity: 31%
[30]
  residual activity: 98.4%
[31]
  residual activity: 89%
[32]
  residual activity: 91.4%
[33]
  residual activity: 97.3%
[34]
  residual activity: 87.8%
[35]
  residual activity: 103%
[36]
  residual activity: 95.6%
[42]
  residual activity: 89.7%
[38]
  residual activity: 102%
[39]
  residual activity: 72.4%
[40]
  residual activity: 106%
[41]
  residual activity: 105%

## COc1ccc2c(c1)/C(=C/c1cnc[nH]1)C(O)=N2
[1]
  residual activity: 87.3%
[2]
  residual activity: 76%
[3]
  residual activity: 103%
[4]
  residual activity: 89.5%
[6]
  residual activity: 84.1%
[7]
  residual activity: 94.3%
[8]
  residual activity: 96.9%
[9]
  residual activity: 93%
[10]
  residual activity: 97.3%
[11]
  residual activity: 96%
[13]
  residual activity: 96.4%
[14]
  residual activity: 93.4%
[15]
  residual activity: 78.8%
[16]
  residual activity: 69%
[17]
  residual activity: 92%
[19]
  residual activity: 89.6%
[21]
  residual activity: 67.8%
[22]
  residual activity: 42.6%
[23]
  residual activity: 99.4%
[24]
  residual activity: 93.5%
[25]
  residual activity: 97.3%
[26]
  residual activity: 98%
[27]
  residual activity: 83.8%
[28]
  residual activity: 91.1%
[29]
  residual activity: 105%
[30]
  residual activity: 70.4%
[31]
  residual activity: 59.9%
[32]
  residual activity: 67.8%
[33]
  residual activity: 98.2%
[34]
  residual activity: 84.9%
[35]
  residual activity: 99.4%
[36]
  residual activity: 86.2%
[42]
  residual activity: 97.7%
[37]
  residual activity: 88.9%
[38]
  residual activity: 101%
[39]
  residual activity: 97.7%
[41]
  residual activity: 84%

Source: the kinase profiling compilation of Christmann-Franck et al. (2016)
